Data taken from patent publication US10611731B2, “5-methyl-6-phenyl-4,5-dihydro-2H-pyridazin-3-one derivative” (OTSUKA PHARMACEUTICAL CO., LTD., priority 2016, dated 2020).

Key:
[1] = system: human childhood brain tumor cell lines (PFSK-1); test: Growth inhibitory activity against PFSK-1 cells (WST-8, Cell Counting Kit-8); assay type: cell-based; conditions: Homo sapiens, 72 h, 3 days incubation with test compound, WST-8 OD 450/630 nm, read-out: IC50 (concentration inhibiting 50% of the cell growth)
Method in brief: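 Cells seeded in RPMI 1640 with 10% FBS and preincubated 24 h at 37 °C, 5% CO2, then exposed to compound for 3 days. IC50 (nM) from growth relative to untreated control.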

SMILES | melting point [°C] | IC50 [1] [nM]
Cc1cc(C2=NNC(=O)CC2C)cc(Cl)c1OCCO (stereo not drawn) [Example 4, 6-[3-Chloro-4-(2-hydroxyethoxy)-5-methylphenyl]-5-methyl-4,5-dihydro-2H-pyridazin-3-one] | 157.4 to 157.6 | 
Cc1cc(C2=NNC(=O)CC2C)cc(Cl)c1OCCCO (stereo not drawn) [Example 17, 6-[3-Chloro-4-(3-hydroxypropoxy)-5-methylphenyl]-5-methyl-4,5-dihydro-2H-pyridazin-3-one] | 129.7 to 132.6 | 2.9
CC1CC(=O)NN=C1c1cc(Cl)c(OCCCO)c(Br)c1 (stereo not drawn) [Example 18, 6-[3-Bromo-5-chloro-4-(3-hydroxypropoxy)phenyl]-5-methyl-4,5-dihydro-2H-pyridazin-3-one] | 153 to 156.6 | 4
CC1CC(=O)NN=C1c1ccc(OCCCO)c(Cl)c1O (stereo not drawn) [Example 77, 6-[3-Chloro-2-hydroxy-4-(3-hydroxypropoxy)phenyl]-5-methyl-4,5-dihydro-2H-pyridazin-3-one] | 225 to 225.3 | 5.3
Cc1c(OCCCO)ccc(C2=NNC(=O)CC2C)c1O (stereo not drawn) [Example 78, 6-[2-Hydroxy-4-(3-hydroxypropoxy)-3-methylphenyl]-5-methyl-4,5-dihydro-2H-pyridazin-3-one] | 199.1 to 200.1 | 6.6
Cc1c(OCCCCO)ccc(C2=NNC(=O)CC2C)c1O (stereo not drawn) [Example 87, 6-[2-Hydroxy-4-(4-hydroxybutoxy)-3-methylphenyl]-5-methyl-4,5-dihydro-2H-pyridazin-3-one] | 178.7 to 179.9 | 9.8
CC(O)COc1c(F)cc(C2=NNC(=O)CC2C)c(F)c1Cl (stereo not drawn) [Example 149, 6-[3-Chloro-2,5-difluoro-4-(2-hydroxypropoxy)phenyl]-5-methyl-4,5-dihydro-2H-pyridazin-3-one] |  | 3.6
Cc1cc(C2=NNC(=O)CC2C)c(F)c(C)c1OC/C=C\CO (stereo not drawn) [Example 150, 6-{2-Fluoro-4-[(Z)-4-hydroxy-2-butenyloxy]-3,5-dimethylphenyl}-5-methyl-4,5-dihydro-2H-pyridazin-3-one] |  | 3.7
Cc1cc(C2=NNC(=O)CC2C)c(F)c(Cl)c1OC/C=C\CO (stereo not drawn) [Example 151, 6-{3-Chloro-2-fluoro-4-[(Z)-4-hydroxy-2-butenyloxy]-5-methylphenyl}-5-methyl-4,5-dihydro-2H-pyridazin-3-one] |  | 1.3
CC1CC(=O)NN=C1c1cc(F)c(OC/C=C\CO)c(Cl)c1F (stereo not drawn) [Example 152, 6-{3-Chloro-2,5-difluoro-4-[(Z)-4-hydroxy-2-butenyloxy]phenyl}-5-methyl-4,5-dihydro-2H-pyridazin-3-one] |  | 3.4
Cc1c(OC/C=C\CO)ccc(C2=NNC(=O)CC2C)c1O (stereo not drawn) [Example 153, 6-{2-Hydroxy-4-[(Z)-4-hydroxy-2-butenyloxy]-3-methylphenyl}-5-methyl-4,5-dihydro-2H-pyridazin-3-one] |  | 5.3
Cc1c(F)c(C2=NNC(=O)CC2C)cc(Cl)c1OCC(F)(F)CO (stereo not drawn) [Example 158, 6-[5-Chloro-4-(2,2-difluoro-3-hydroxypropoxy)-2-fluoro-3-methylphenyl]-5-methyl-4,5-dihydro-2H-pyridazin-3-one] |  | 4.3
Cc1cc(C2=NNC(=O)CC2C)c(F)c(Cl)c1OCC(F)(F)CO (stereo not drawn) [Example 159, 6-[3-Chloro-4-(2,2-difluoro-3-hydroxypropoxy)-2-fluoro-5-methylphenyl]-5-methyl-4,5-dihydro-2H-pyridazin-3-one] |  | < 1
Cc1cc(C2=NNC(=O)CC2C)c(F)c(C)c1OCC(F)(F)CO (stereo not drawn) [Example 160, 6-[4-(2,2-Difluoro-3-hydroxypropoxy)-2-fluoro-3,5-dimethylphenyl]-5-methyl-4,5-dihydro-2H-pyridazin-3-one] |  | 1.9
CC1CC(=O)NN=C1c1cc(F)c(OCC(F)(F)CO)c(Cl)c1F (stereo not drawn) [Example 161, 6-[3-Chloro-4-(2,2-difluoro-3-hydroxypropoxy)-2,5-difluorophenyl]-5-methyl-4,5-dihydro-2H-pyridazin-3-one] |  | 2.7
CC1CC(=O)NN=C1c1ccc(OCC(F)(F)CO)c(Cl)c1O (stereo not drawn) [Example 162, 6-[3-Chloro-4-(2,2-difluoro-3-hydroxypropoxy)-2-hydroxyphenyl]-5-methyl-4,5-dihydro-2H-pyridazin-3-one] |  | 6.4
CCC(O)COc1ccc(C2=NNC(=O)CC2C)c(O)c1Cl (stereo not drawn) [Example 163, 6-[3-Chloro-2-hydroxy-4-(2-hydroxybutoxy)phenyl]-5-methyl-4,5-dihydro-2H-pyridazin-3-one] |  | 5.2
Cc1cc(C2=NNC(=O)CC2C)c(O)c(Cl)c1OCC(C)O (stereo not drawn) [Example 164, 6-[3-Chloro-2-hydroxy-4-(2-hydroxypropoxy)-5-methylphenyl]-5-methyl-4,5-dihydro-2H-pyridazin-3-one] |  | 4.9
CC1CC(=O)NN=C1c1cc(Cl)c(OCC2(O)CC2)c(Br)c1 (stereo not drawn) [Example 165, 6-{3-bromo-5-chloro-4-[(1-hydroxycyclopropyl)methoxy]phenyl}-5-methyl-4,5-dihydro-2H-pyridazin-3-one] |  | 2.6

SMILES | melting point [°C] | IC50 [1] [nM]
Cc1c(OCC2(O)CC2)ccc(C2=NNC(=O)CC2C)c1O (stereo not drawn) [Example 166, 6-{2-Hydroxy-4-[(1-hydroxycyclopropyl)methoxy]-3-methylphenyl}-5-methyl-4,5-dihydro-2H-pyridazin-3-one] |  | 4.7
Cc1cc(C2=NNC(=O)CC2C)c(F)c(Cl)c1OCC1(O)CC1 (stereo not drawn) [Example 167, 6-{3-Chloro-2-fluoro-4-[(1-hydroxycyclopropyl)methoxy]-5-methylphenyl}-5-methyl-4,5-dihydro-2H-pyridazin-3-one] |  | 1.3
CC1CC(=O)NN=C1c1ccc(OCC2(O)CC2)c(Br)c1F (stereo not drawn) [Example 168, 6-{3-Bromo-2-fluoro-4-[(1-hydroxycyclopropyl)methoxy]phenyl}-5-methyl-4,5-dihydro-2H-pyridazin-3-one] |  | 2.3
CC1CC(=O)NN=C1c1cc(F)c(OCC2(O)CC2)c(Br)c1 (stereo not drawn) [Example 169, 6-{3-Bromo-5-fluoro-4-[(1-hydroxycyclopropyl)methoxy]phenyl}-5-methyl-4,5-dihydro-2H-pyridazin-3-one] |  | 4
CC1CC(=O)NN=C1c1cc(Cl)c(OCC2(O)CC2)c(Cl)c1 (stereo not drawn) [Example 170, 6-{3,5-Dichloro-4-[(1-hydroxycyclopropyl)methoxy]phenyl}-5-methyl-4,5-dihydro-2H-pyridazin-3-one] |  | 2.5
Cc1cc(C2=NNC(=O)CC2C)c(F)c(C)c1OCC1(O)CC1 (stereo not drawn) [Example 171, 6-{2-Fluoro-4-[(1-hydroxycyclopropyl)methoxy]-3,5-dimethylphenyl}-5-methyl-4,5-dihydro-2H-pyridazin-3-one] |  | 6.3
CC1CC(=O)NN=C1c1cc(F)c(OCC2(O)CC2)c(Cl)c1F (stereo not drawn) [Example 172, 6-{3-Chloro-2,5-difluoro-4-[(1-hydroxycyclopropyl)methoxy]phenyl}-5-methyl-4,5-dihydro-2H-pyridazin-3-one] |  | 5.2
CC1CC(=O)NN=C1c1ccc(OCC2(O)CC2)c(Cl)c1O (stereo not drawn) [Example 174, 6-{3-Chloro-2-hydroxy-4-[(1-hydroxycyclopropyl)methoxy]phenyl}-5-methyl-4,5-dihydro-2H-pyridazin-3-one] |  | 4.2
Cc1cc(C2=NNC(=O)CC2C)c(O)c(Cl)c1OCC1(O)CC1 (stereo not drawn) [Example 175, 6-{3-Chloro-2-hydroxy-4-[(1-hydroxycyclopropyl)methoxy]-5-methylphenyl}-5-methyl-4,5-dihydro-2H-pyridazin-3-one] |  | 4.1
Cc1c(O)c(C2=NNC(=O)CC2C)cc(Cl)c1OCC1(O)CC1 (stereo not drawn) [Example 176, 6-{5-Chloro-2-hydroxy-4-[(1-hydroxycyclopropyl)methoxy]-3-methylphenyl}-5-methyl-4,5-dihydro-2H-pyridazin-3-one] |  | 9.2
Cc1cc(C2=NNC(=O)CC2C)c(F)cc1OC(F)(F)CO (stereo not drawn) [Example 177, 6-[4-(1,1-difluoro-2-hydroxyethoxy)-2-fluoro-5-methylphenyl]-5-methyl-4,5-dihydro-2H-pyridazin-3-one] |  | 4
Cc1c(OCCCO)ccc(C2=NNC(=O)C[C@H]2C)c1O [Example 178, (5R)-(−)-6-[2-hydroxy-4-(3-hydroxypropoxy)-3-methylphenyl]-5-methyl-4,5-dihydro-2H-pyridazin-3-one] |  | 4.6
Cc1c(OCC(C)(C)O)ccc(C2=NNC(=O)C[C@H]2C)c1O [Example 179, (5R)-(−)-6-[2-hydroxy-4-(2-hydroxy-2-methylpropoxy)-3-methylphenyl]-5-methyl-4,5-dihydro-2H-pyridazin-3-one] |  | 3.3
C[C@@H]1CC(=O)NN=C1c1ccc(OCCCCO)c(Cl)c1O [Example 180, (5R)-(−)-6-[3-chloro-2-hydroxy-4-(4-hydroxybutoxy)phenyl]-5-methyl-4,5-dihydro-2H-pyridazin-3-one] |  | 6.5
Cc1cc(C2=NNC(=O)C[C@H]2C)c(O)c(Cl)c1OCCCO [Example 181, (5R)-(−)-6-[3-chloro-2-hydroxy-4-(3-hydroxypropoxy)-5-methylphenyl]-5-methyl-4,5-dihydro-2H-pyridazin-3-one] |  | 3.9
C[C@@H]1CC(=O)NN=C1c1ccc(OCC(C)(C)O)c(Cl)c1O [Example 182, (5R)-(−)-6-[3-chloro-2-hydroxy-4-(2-hydroxy-2-methylpropoxy)phenyl]-5-methyl-4,5-dihydro-2H-pyridazin-3-one] |  | 2.9
C[C@@H]1CC(=O)NN=C1c1ccc(OC/C=C\CO)c(Cl)c1O [Example 183, (5R)-(−)-6-{3-chloro-2-hydroxy-4-[(Z)-4-hydroxy-2-butenyloxy]phenyl}-5-methyl-4,5-dihydro-2H-pyridazin-3-one] |  | 4.5
CC1CC(=O)NN=C1c1ccc(OCC(C)(C)O)c(C(F)(F)F)c1F (stereo not drawn) [Example 184, 6-[2-fluoro-4-(2-hydroxy-2-methylpropoxy)-3-(trifluromethyl)phenyl]-5-methyl-4,5-dihydro-2H-pyridazin-3-one] |  | 2.2
